Data taken from US20210130291A1, “METHODS FOR TREATING DIABETES USING VDAC1 INHIBITORS” (THE NATIONAL INSTITUTE FOR BIOTECHNOLOGY IN THE NEGEV LTD., priority 2016, published 2021).
“Also recorded” adds a separate entry of the source. Each block holds one molecule with its values, some of them ahead of it.

Key:
[1] = molecular target: T1, plasma membrane targeted VDAC1 (plVDAC1) (Mus musculus, UniProt Q60932); assay: ATP release and ATP content of INS-1 cells transfected with plasma membrane targeted VDAC1; format: cell-based; conditions: for ATP release: racemate and enantiomers (FIG. 9a)
T1 construct: expressed in transfected cells; host or cells: INS-1 832/13 cells (rat insulinoma), transient transfection; plasmid a gift from Dr. R. Buettner
Protocol: (§1) ATP release from isolated mouse or human islets or from INS-1 cells after transfection with mitochondrial targeted VDAC1 (mtVDAC1) or plasma membrane targeted VDAC1 (plVDAC1) plasmids was determined using a luminometric assay kit according to manufacturer's recommendation (Biovision). After incubation of islets (50/vial) or INS-1 cells for 60 min, an aliquot of the media was removed for subsequent measurements of released ATP. Then the islets or INS-1 cells were washed 3 times and the lysates were used for measurements of ATP and protein contents followed the protocol provided by the vendor.
INS-1 cells were transiently transfected with a plasmid encoding plasma membrane targeted VDAC1 (pVDAC1) as described in the Material and Method section herein above and in Example 3 (see also Buettner et al 2000. PNAS 97:3201-3206). After transfection (24-32 h and 2-4 h recovery in normal culture medium, RPMI 1640 with complete supplement) the INS-1 cells were washed followed by preincubation in SAB-buffer (See Material and Method above) containing 2.8 mM glucose. The final 1 h incubation was performed in SAB-buffer containing 1 mM glucose and the VDAC1 inhibitory compounds to be tested. At the end, the cells were lysed using lysis buffer, sonicated and the lysate as well as the incubation medium were analyzed for ATP content using a commercially available kit (Biovision, K354-100). Cellular protein content was analyzed by Pierce™ BCA protein assay kit (Thermo Scientific, USA).

[2] = tested on: VDAC1 expression in INS-1 cells; assay: VDAC1 expression in INS-1 cells cultured at 5 or 20 mM glucose; format: cell-based, rat
Protocol: INS-1 832/13 cells (kindly donated by Dr. C. B. Newgaard, Duke University, USA) were cultured in RPMI-1640 containing 11.1 mM D-glucose and supplemented with 10% fetal bovine serum, 100 U/ml penicillin (Gibco), 100 µg/ml streptomycin (Gibco), 10 mM HEPES, 2 mM glutamine, 1 mM sodium pyruvate, and 50 µM β-mercaptoethanol (Sigma), at 37° C. in a humidified atmosphere containing 95% air and 5% CO2. For VDAC1 over-expression by VDAC1 plasmid (1 μg/ml) and VDAC2 down-regulation by and siRNA, INS1 832/13 cells were cultured to 60% confluence. To study the long-term effects (24-72 h) of high glucose (20 mM) (glucotoxicity) compared to basal glucose (5 mM), INS-1 832/13 cells were cultured with RPMI 1640 complete media (Ahmed, M., et al., 2010. Islets 2, 283-292) in the presence or absence of indicated agents and thereafter VDAC1 expression, cell viability and function was measured.
Total RNA from handpicked mouse islets, human donor islets (Diabetic and non-diabetic) or INS1 832/13 cells were extracted using RNAeasy (Qiagen, Hilden, Germany). RNA ([…]) was used for cDNA synthesis with SuperScript (Invitrogen, Carlsbad, Calif., USA). Concentration and purity of total RNA was measured with a NanoDrop ND-1000 spectrophotometer (A260/A280>1.9 and A260/A230>1.4) (NanoDrop Technologies, Wilmington, Del.) and RNA Quality Indicator (RQI) higher than 8.0 (Experion Automated Electrophoresis, Bio-Rad, USA) was considered to be high-quality total RNA preparations. A 10 μl of reaction mixture with 20 ng cDNA, 5 μl TaqMan mastermix (Applied Biosystems, Foster City, Calif., USA), and 100 nM TagMan gene expression assay were run in a 7900HT Fast Real-Time System (Applied Biosystems). The qPCR was carried out as follows: 50° C. for 2 minutes, 95° C. for 10 minutes, 40 cycles of 95° C. for 15 seconds, and 60° C. for 1 minute. The amount of mRNA was calculated relative to the amount of housekeeping genes (GAPDH, PPIA or HPRT) mRNA in the same sample by the formula X0/R0=2CtR-CtX, where X0 is the original amount of mRNA for the gene of interest, R0 is the original amount of HPRT mRNA, CtR the Ct value for HPRT, and CtX the Ct value for the gene of interest. Primer sequences are provided upon request.

islets from T2D donors = assay: ATP content and GSIS in islets from T2D donors, acute addition of VDAC1 inhibitors; format: cell-based, human
Text: Human pancreatic islets were obtained through collaboration between Human Tissue Laboratory within Lund University Diabetes Centre (LUDC) and the Nordic Network for Clinical Islet Transplantation (Prof. Olle Korsgren, Uppsala University, Sweden). Donors were grouped according to HbA1c i.e. less than 6% (ND), between 6% and 6.5% (IGT), higher than 6.5% or history of diabetes (T2D). The human islets (70-90% purity) had been cultured in CMRL 1066 (ICN Biomedicals, Costa Mesa, Calif.) supplemented with 10 mM HEPES, 2 mM L-glutamine, […] gentamicin, […] fungizone (Gibco, BRL, Gaithersburg, Md.), 20 μg/ml ciprofloxacin (Bayer Healthcare, Leverkusen, Germany) and 10 mM nicotinamide at 37° C. (5% CO2) for 1 to 5 days prior to the arrival in the laboratory. The islets were then hand-picked under stereomicroscope prior to use. All procedures using human islets were approved by the ethical committees at Uppsala and Lund Universities, Sweden.
(§2) Human pancreatic islets were collected under a stereomicroscope at room temperature and cultured at 5.5 or 20 mM glucose in the absence or presence of test agents for 72 h. Thereafter the islets were washed and preincubated for 30 min at 37° C. in Krebs Ringer bicarbonate buffer, pH 7.4, supplemented with N-2 hydroxyethylpiperazine-N′-2-ethanesulfonic acid (10 mM), 0.1% bovine serum albumin, and 1 mM glucose. Each incubation vial contained 12 islets in 1.0 ml KRB buffer solution and treated with 95% O2 and 5% CO2 to obtain constant pH and oxygenation. After preincubation, the buffer was changed to a medium containing either 1 mM or 16.7 mM glucose. The islets were then incubated for 1 h at 37° C. in a metabolic shaker (30 cycles per min). Immediately after incubation an aliquot of the medium was removed for analysis of insulin and the islets were incubated in acid-ethanol for insulin content determination by radioimmunoassay.
as §1

islets of C57/BL mice = assay: ATP content and GSIS in islets of control C57/BL mice; format: cell-based, mouse; conditions: VDAC1 antibody 10 nM
Protocol: 5 weeks old db/db mice and control (C57/bl) (Janvier Laboratory, France), weighing 18-25 g, were used throughout the experiments. They were given a standard pellet diet (B&K) and tap water ad libitum. The experimental procedures were approved by the Ethics Committee for Animal Research at Lund University. Isolation of pancreatic islets was performed by retrograde injection of a collagenase solution via the bile-pancreatic duct and islets were then collected under a stereomicroscope at room temperature.
as §2, §1

[3] = plVDAC1-transfected INS-1 cells, 1 h at 1 mM glucose

T1 sequence (Q60932 whole entry): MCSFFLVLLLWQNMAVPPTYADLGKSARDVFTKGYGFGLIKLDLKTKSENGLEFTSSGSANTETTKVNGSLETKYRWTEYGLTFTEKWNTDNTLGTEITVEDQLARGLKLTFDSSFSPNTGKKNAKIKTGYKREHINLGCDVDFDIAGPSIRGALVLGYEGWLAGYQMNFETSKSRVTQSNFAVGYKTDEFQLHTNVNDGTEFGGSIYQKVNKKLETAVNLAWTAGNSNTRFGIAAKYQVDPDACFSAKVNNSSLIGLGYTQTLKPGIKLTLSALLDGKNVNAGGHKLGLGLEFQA

Compound: O=CC[C@@H](O)[C@H](O)[C@H](O)CO [2-deoxyglucose, reference compound]
VDAC1 expression ([2]; INS-1 cells, 2-deoxyglucose, data not shown): increased VDAC1 expression

Compound: O=C1CC(N2CCC(Nc3ccc(OC(F)(F)F)cc3)CC2)C(=O)N1c1ccc(Cl)cc1 (centres unmarked) [AKOS, 1-(4-Chloro-phenyl)-3-[4-(4-trifluoromethoxy-phenylamino)-piperidin-1-yl]-pyrrolidine-2,5-dione]
GSIS (islets from T2D donors; T2D islets, acute addition 1 h (FIG. 6f)): increased in parallel with the improved ATP generation
islet ATP content (islets from T2D donors; islets from 5 T2D donors and one IGT donor, 1 h, at 1 and 16.7 mM glucose (FIG. 6e)): increased islet ATP content
ATP release (loss of cellular ATP) ([1]; plVDAC1-transfected INS-1 cells, 1 h at 1 mM glucose, VDAC1-ab 10 nM, metformin, AKOS, VBIT-4 20 μM each (FIG. 4c)): prevented; also recorded: rapidly inhibited
GSIS (islets of C57/BL mice; others 20 μM (FIG. 7e)): do not affect
ATP content (islets of C57/BL mice; others 20 μM (FIG. 7d)): do not affect
glucose evoked VDAC1 upregulation (total VDAC1 expression) ([2]; INS-1 cells cultured 72 h at 20 mM glucose, VDAC1ab 10 nM, metformin, AKOS, VBIT-4 20 μM each (FIG. 4l, 4m)): abrogated the glucose evoked VDAC1 upregulation

More lines, now with the values ahead:

ATP release [1, 3]: efficiently inhibit ATP release
Compound: O=C(CC(CO)N1CCN(c2ccc(OC(F)(F)F)cc2)CC1)Nc1ccc(Cl)cc1 (centres unmarked) [VBIT-4-2]

effect of AMPK inhibitor on metformin-inhibited ATP release ([1]; plVDAC1 transfected INS-1 cells, MRT199665 5 μM with metformin (FIG. 4i)): neither attenuated
Compound: CC1(C)C(=O)N([C@H]2CCc3c(O)cccc32)c2nc(Nc3cccc(CN4CCCC4)c3)ncc21 [MRT199665, reference compound]

ATP release [1, 3]: efficiently inhibit ATP release
cellular ATP content ([1]; plVDAC1-transfected INS-1 cells, 1 h at 1 mM glucose, racemate and enantiomers (FIG. 9b)): increase cellular ATP content
Compound: O=C(CC(CO)N1CCN(c2ccc(OC(F)(F)F)cc2)CC1)Nc1ccc(Cl)cc1 (centres unmarked) [VBIT-4-1]
